A short description of data set [1]: log P[a] by HPLC on reversed-phase column (C18), LC-UV in the acidic range. In kind it is physicochemical. The settings on record: 0.9 ml/l formic acid in water and 1.0 ml/l formic acid in acetonitrile, gradient 10% to 95% acetonitrile, EEC Directive 79/831 Annex V.A8. As for the experimental part: (§1) The log values were determined according to EEC Directive 79/831 Annex V.A8 by HPLC (high-performance liquid chromatography) on a reversed-phase column (C18) using the following methods: The log P[a] value is determined by LC-UV measurement in the acidic range using 0.9 mill formic acid in water and 1.0 ml/l formic acid in acetonitrile as mobile phases (linear gradient from 10% acetonitrile to 95% acetonitrile). Calibration was carried out using a homologous series of straight-chain alkan-2-ones (having 3 to 16 carbon atoms) with known log values. The values between successive alkanones are determined by linear regression.

The nature of data set [2]: log P[n] by HPLC on reversed-phase column (C18), LC-UV in the neutral range. It counts as physicochemical. The settings on record: 79 mg/l ammonium carbonate in water and acetonitrile, gradient 10% to 95% acetonitrile, EEC Directive 79/831 Annex V.A8. As for the experimental part: as §1, with “P[n]” for “P[a]”, “neutral” for “acidic”, “79 mg/l ammonium carbonate” for “0.9 mill formic acid”, “and” for “and 1.0 ml/l formic acid in”

Regarding `CCSc1c(-c2nc3cc(C(F)(F)F)nnc3n2C)nc(Br)n1C` [Example 1, 6-[2-bromo-5-(ethylsulfanyl)-1-methyl-1H-imidazol-4-yl]-7-methyl-3-(trifluoromethyl)-7H-imidazo[4,5-]pyridazine], the chromatographic logP in data set [1] is 3.14; in data set [2], 3.01.

As for `CCSc1c(-c2nc3cc(C(F)(F)C(F)(F)F)nnc3n2C)nc(Br)n1C` [Example 2, 6-[2-bromo-5-(ethylsulfanyl)-1-methyl-1H-imidazol-4-yl]-7-methyl-3-(pentafluoroethyl)-7H-imidazo[4,5-c]pyridazine], the chromatographic logP worked out at 3.8 in data set [1] and 3.66 in data set [2].

With `CCS(=O)(=O)c1c(-c2nc3cc(C(F)(F)C(F)(F)F)nnc3n2C)nc(Br)n1C` [Example 3, 6-[2-bromo-5-(ethylsulfonyl)-1-methyl-1H-imidazol-4-yl]-7-methyl-3-(pentafluoroethyl)-7H-imidazo[4,5-c]pyridazine], the results for the chromatographic logP in data set [1] and in data set [2] were 2.8 and 2.76, respectively.

In the case of `CCSc1c(-c2nc3cc(C(F)(F)C(F)(F)F)ncc3n2C)nc(Br)n1C` [Example 4, 2-[2-bromo-5-(ethylsulfanyl)-1-methyl-1H-imidazol-4-yl]-3-methyl-6-(pentafluoroethyl)-3H-imidazo[4,5-c]pyridine], the chromatographic logP in data set [1] is 3.63; in data set [2], 3.51.

For the compound `CCSc1c(-c2nc3cc(C(F)(F)C(F)(F)F)nnc3n2C)nc(-c2ccc(Cl)nn2)n1C` [Example 5, 6-[2-(6-chloropyridazin-3-yl)-5-(ethylsulfanyl)-1-methyl-1H-imidazol-4-yl]-7-methyl-3-(pentafluoroethyl)-7H-imidazo[4,5-c]pyridazine], the chromatographic logP in data set [1] worked out at 4.13; in data set [2] it was 4.01.

`CCSc1c(-c2nc3cc(C(F)(F)C(F)(F)F)nnc3n2C)nc(-c2ccc(C#N)cn2)n1C` [Example 6, 6-{5-(ethylsulfanyl)-1-methyl-4-[7-methyl-3-(pentafluoroethyl)-7H-imidazo[4,5-c]pyridazin-6-yl]-1H-imidazol-2-yl}nicotinonitrile]: the chromatographic logP in data set [1] turned out to be 4.32; in data set [2], 4.2.

Usually chromatographic logP stands for a lipophilicity value derived from retention on a column. A low value points to a more hydrophilic compound.

Values taken from patent US11479565B2, “Process for preparing substituted imidazole derivatives” (BAYER AKTIENGESELLSCHAFT, priority 2018, dated 2022).
